Measurements as given in patent publication US9414590B2, “Chemical and biological agents for the control of molluscs” (priority 2009, dated 2016).
Like-named read-outs stand apart in the source and are kept apart here.

Legend:
[1] = system: quagga mussels; experiment: Mussel bioassay test (live mussel jar-test); assay type: in vivo, Dreissena bugensis; conditions: Dreissena rostriformis, 16 μg/ml
Procedure: Twenty freshly collected quagga mussels is placed in a jar containing 250 mL of de-chlorinated tap water at room temperature. Jars are kept at room temperature and connected into a manifold providing constant air supply through bubbling. Each test subject (HPLC fraction or peak) dissolved in DMSO is pipetted into jars separately at a concentration of 1-5 mg, and the mussels are incubated with the test subject for 24 hours. After the incubation period, water in each jar is discarded, and the mussels are rinsed with fresh water and transferred into open glass petri dishes for a 10-day observation period. Mussels are checked daily for mortality, and the dead mussels are removed and discarded. Each treatment is carried out in three replicates, and in the end of the 10-day incubation period, % mortality is calculated for each treatment.
The potency of compounds isolated from Pseudomonas cell culture is tested using procedures described above.

[2] = system: CL145A (ATCC 55799); experiment: Antibiotic resistance profile, discs on Mueller-Hinton Agar; assay type: cell-based, Pseudomonas protegens strain CL145A; conditions: for CL145A resistant or sensitive to the antibiotic: antibiotic disc, 72 hours incubation; for Suppresses growth of CL145A: 25° C., 72 hours
Procedure: One glycerol stock vial of CL145A was equally distributed onto Mueller-Hinton Agar plates (100 μl per plate) and spread on the plate using a sterile cell spreader. Antibiotic discs were then placed onto the plates along with a blank sterile disc. Plates were incubated at 25° C. in the dark for 72 hours.

[3] = system: quagga mussels; experiment: whole plant or invertebrate; conditions: Dreissena rostriformis
[4] = system: Brown garden snails (Cantareus aspersus); experiment: Snail experiments: chemical-containing corn starch; assay type: in vivo; conditions: 100 mg/gram corn starch; for Consumed amount of corn starch: after 24 hr
Procedure: An appropriate amount of a testing compound is dissolved in acetone (2 mL) first. The solution was added into 2.5 gram of corn starch and mixed well. The resulting mixture is transferred to a Petri dish (Φ 25 mm). The Petri dish is then put in the hood for natural dry. After drying, water (2 mL) is added into the Petri dish to make paste.
Brown garden snails (Cantareus aspersus) are collected from a house garden and raised at least 1 day in lab with cabbage or red carrot. Five individuals with a similar size are chosen for each treatment and transferred into a 1 L beaker. To make the snail active, some water is sprayed on them and in the beaker by using hand-sprayer. After spraying water, the Petri dish with chemical-containing corn starch is placed into the beaker the beaker is covered on the top with aluminum foil. Eating behavior, consumed amount of corn starch and mortality at 24 hr is recorded.

[5] = 24 hr, read-out: % mortality 24 hr
[6] = 48 hr, read-out: % mortality 48 hr
[7] = 72 hr, read-out: % mortality 72 hr
[8] = 96 hr, read-out: % mortality 96 hr
[9] = 24 h, read-out: Molluscicidal effect (mortality) 24 hr
[10] = 48 h, read-out: Molluscicidal effect (mortality) 48 hr
[11] = 72 h, read-out: Molluscicidal effect (mortality) 72 hr
[12] = 96 h, read-out: Molluscicidal effect (mortality) 96 hr
[13] = 24 h, read-out: Potency toward quagga mussels (mortality) 24 hr
[14] = 48 h, read-out: Potency toward quagga mussels (mortality) 48 hr
[15] = 72 h, read-out: Potency toward quagga mussels (mortality) 72 hr
[16] = 96 h, read-out: Potency toward quagga mussels (mortality) 96 hr

## CCCCC/C=C/C(O)CCCCCCCCCC(=O)O (stereo not drawn) [11-Hydroxy-12-ene-octadecanoic acid]
[1]; [5]
  mortality at 16 µg/mL: 0%
[1]; [6]
  mortality at 16 µg/mL: 20 ± 20%
[1]; [7]
  mortality at 16 µg/mL: 33.3 ± 20.8%
[1]; [8]
  mortality at 16 µg/mL: 40 ± 26.5%

## CC1(C)S[C@@H]2[C@H](NC(=O)[C@H](N)c3ccccc3)C(=O)N2[C@H]1C(=O)O [Ampicillin]
[2]
  CL145A resistant or sensitive to the antibiotic: resistant
[2]; disc 10 μg
  Suppresses growth of CL145A: No

## CO/N=C(\C(=O)N[C@@H]1C(=O)N2C(C(=O)O)=C(COC(N)=O)CS[C@H]12)c1ccco1 [Cefuroxime]
[2]
  CL145A resistant or sensitive to the antibiotic: resistant
[2]; disc 30 μg
  Suppresses growth of CL145A: No

## O=C(N[C@H](CO)[C@H](O)c1ccc([N+](=O)[O-])cc1)C(Cl)Cl [Chloramphenicol]
[2]
  CL145A resistant or sensitive to the antibiotic: resistant
[2]; disc 30 μg
  Suppresses growth of CL145A: No

## CC[C@H]1OC(=O)[C@H](C)[C@@H](O[C@H]2C[C@@](C)(OC)[C@@H](O)[C@H](C)O2)[C@H](C)[C@@H](O[C@@H]2O[C@H](C)C[C@H](N(C)C)[C@H]2O)[C@](C)(O)C[C@@H](C)C(=O)[C@H](C)[C@@H](O)[C@]1(C)O [Erythromycin]
[2]
  CL145A resistant or sensitive to the antibiotic: resistant
[2]; disc 15 μg
  Suppresses growth of CL145A: No

## CCCCC/C=C/C(O)CCCCCCC1CCC(=O)O1 (stereo not drawn) [Piliferolide A]
[1]; [5]
  mortality at 16 µg/mL: 53.3 ± 15.3%
[1]; [6]
  mortality at 16 µg/mL: 53.3 ± 15.3%
[1]; [7]
  mortality at 16 µg/mL: 70 ± 10%
[1]; [8]
  mortality at 16 µg/mL: 80 ± 10%

## CCN1CCN(C(=O)N[C@@H](C(=O)N[C@@H]2C(=O)N3[C@@H]2SC(C)(C)[C@@H]3C(=O)O)c2ccccc2)C(=O)C1=O [Piperacillin]
[2]
  CL145A resistant or sensitive to the antibiotic: sensitive
[2]; disc 100 μg
  Suppresses growth of CL145A: Yes

## CCCCCCCCC1CCC(=O)O1 (stereo not drawn) [SAR-001]
[3]; [9]
  mortality at 11.1 µg/mL: 86.7 ± 5.8%
[3]; [10]
  mortality at 11.1 µg/mL: 96.7 ± 5.8%
[3]; [11]
  mortality at 11.1 µg/mL: 96.7 ± 5.8%
[3]; [12]
  mortality at 11.1 µg/mL: 96.7 ± 5.8%

## CCCCCCCC1CCOC1=O (stereo not drawn) [SAR-002]
[3]; [9]
  mortality at 11.1 µg/mL: 30 ± 10%
[3]; [10]
  mortality at 11.1 µg/mL: 66.7 ± 15.3%
[3]; [11]
  mortality at 11.1 µg/mL: 73.3 ± 11.5%
[3]; [12]
  mortality at 11.1 µg/mL: 76.7 ± 15.3%

## CCCCCCCCC1CCCC(=O)O1 (stereo not drawn) [SAR-003]
[3]; [9]
  mortality at 11.1 µg/mL: 3.3 ± 5.7%
[3]; [10]
  mortality at 11.1 µg/mL: 10 ± 10%
[3]; [11]
  mortality at 11.1 µg/mL: 10 ± 10%
[3]; [12]
  mortality at 11.1 µg/mL: 10 ± 10%

## CCCCCCCCCC1CCCC(=O)O1 (stereo not drawn) [SAR-004]
[3]; [9]
  mortality at 11.1 µg/mL: 0%
[3]; [10]
  mortality at 11.1 µg/mL: 0%
[3]; [11]
  mortality at 11.1 µg/mL: 0%
[3]; [12]
  mortality at 11.1 µg/mL: 0%

## CCCCCCCCCCCC(=O)O [SAR-005]
[3]; [9]
  mortality at 11.1 µg/mL: 0%
[3]; [10]
  mortality at 11.1 µg/mL: 0%
[3]; [11]
  mortality at 11.1 µg/mL: 0%
[3]; [12]
  mortality at 11.1 µg/mL: 0%

## CCCCCCCCC(O)CCC(=O)O (stereo not drawn) [SAR-006]
[3]; [9]
  mortality at 11.1 µg/mL: 0%
[3]; [10]
  mortality at 11.1 µg/mL: 0%
[3]; [11]
  mortality at 11.1 µg/mL: 0%
[3]; [12]
  mortality at 11.1 µg/mL: 0%

## CCCCCCCCCC(=O)N1CCCC1 [SAR-007, N-(Decanoyl)pyrrolidine]
[3]; [13]
  mortality at 11.1 µg/mL: 35 ± 7%
[3]; [14]
  mortality at 11.1 µg/mL: 50 ± 14%
[3]; [15]
  mortality at 11.1 µg/mL: 55 ± 21%
[3]; [16]
  mortality at 11.1 µg/mL: 65 ± 21%

## CCCCCC1CCC(=O)O1 (stereo not drawn) [SAR-008]
[3]; [9]
  mortality at 11.1 µg/mL: 0%
[3]; [10]
  mortality at 11.1 µg/mL: 0%
[3]; [11]
  mortality at 11.1 µg/mL: 0%
[3]; [12]
  mortality at 11.1 µg/mL: 0%

## CCCC1CCC(=O)O1 (stereo not drawn) [SAR-011]
[3]; [9]
  mortality at 11.1 µg/mL: 0%
[3]; [10]
  mortality at 11.1 µg/mL: 0%
[3]; [11]
  mortality at 11.1 µg/mL: 0%
[3]; [12]
  mortality at 11.1 µg/mL: 0%

## O=C1CCC(c2ccccc2)O1 (stereo not drawn) [SAR-013]
[3]; [9]
  mortality at 11.1 µg/mL: 0%
[3]; [10]
  mortality at 11.1 µg/mL: 0%
[3]; [11]
  mortality at 11.1 µg/mL: 0%
[3]; [12]
  mortality at 11.1 µg/mL: 0%

## CCCCCCC1CCC(=O)O1 (stereo not drawn) [SAR-014]
[4]
  Effect on brown garden snails: strongly repel brown garden snails
  Consumed amount of corn starch: 0% after
[4]; 24 hr
  24 hr mortality: 0%
[3]; [9]
  mortality at 11.1 µg/mL: 0%
[3]; [10]
  mortality at 11.1 µg/mL: 0%
[3]; [11]
  mortality at 11.1 µg/mL: 0%
[3]; [12]
  mortality at 11.1 µg/mL: 0%

## CCCCCCCCCC(=O)NC1CCCC1 [SAR-020, N-Cyclopentyldecanamide]
[3]; [13]
  mortality at 11.1 µg/mL: 75 ± 7%
[3]; [14]
  mortality at 11.1 µg/mL: 75 ± 7%
[3]; [15]
  mortality at 11.1 µg/mL: 75 ± 7%
[3]; [16]
  mortality at 11.1 µg/mL: 75 ± 7%

## CCCCCCCCCC(=O)N1CCCCC1 [SAR-021, N-(Decanoyl)piperidine]
[3]; [13]
  mortality at 11.1 µg/mL: 55 ± 21%
[3]; [14]
  mortality at 11.1 µg/mL: 55 ± 21%
[3]; [15]
  mortality at 11.1 µg/mL: 60 ± 14%
[3]; [16]
  mortality at 11.1 µg/mL: 65 ± 7%

## CCCCCCCCCC(=O)N1CCCCCC1 [SAR-022, N-(Decanoyl)hexamethyleneimine]
[3]; [13]
  mortality at 11.1 µg/mL: 35 ± 7%
[3]; [14]
  mortality at 11.1 µg/mL: 40 ± 14%
[3]; [15]
  mortality at 11.1 µg/mL: 40 ± 14%
[3]; [16]
  mortality at 11.1 µg/mL: 45 ± 21%

## O=C(/C=C/c1ccccc1)NC1CCCC1 [SAR-023, N-Cyclopentylcinnamamide]
[3]; [13]
  mortality at 11.1 µg/mL: 0%
[3]; [14]
  mortality at 11.1 µg/mL: 0%
[3]; [15]
  mortality at 11.1 µg/mL: 0%
[3]; [16]
  mortality at 11.1 µg/mL: 0%

## O=C(/C=C/c1ccccc1)N1CCCC1 [SAR-024, N-(trans-Cinnamoyl)pyrrolidine]
[3]; [13]
  mortality at 11.1 µg/mL: 0%
[3]; [14]
  mortality at 11.1 µg/mL: 0%
[3]; [15]
  mortality at 11.1 µg/mL: 0%
[3]; [16]
  mortality at 11.1 µg/mL: 0%

## O=C(/C=C/c1ccccc1)N1CCCCC1 [SAR-025, N-(trans-Cinnamoyl)piperidine]
[3]; [13]
  mortality at 11.1 µg/mL: 0%
[3]; [14]
  mortality at 11.1 µg/mL: 0%
[3]; [15]
  mortality at 11.1 µg/mL: 0%
[3]; [16]
  mortality at 11.1 µg/mL: 0%

## O=C(/C=C/c1ccccc1)N1CCCCCC1 [SAR-026, N-(trans-Cinnamoyl) hexamethyleneimine]
[3]; [13]
  mortality at 11.1 µg/mL: 0%
[3]; [14]
  mortality at 11.1 µg/mL: 0%
[3]; [15]
  mortality at 11.1 µg/mL: 0%
[3]; [16]
  mortality at 11.1 µg/mL: 0%

## CCCCCCC/C=C/C(=O)NC1CCCC1 [SAR-027, N-Cyclopentyldecenamide]
[3]; [13]
  mortality at 11.1 µg/mL: 85 ± 7%
[3]; [14]
  mortality at 11.1 µg/mL: 95 ± 7%
[3]; [15]
  mortality at 11.1 µg/mL: 95 ± 7%
[3]; [16]
  mortality at 11.1 µg/mL: 95 ± 7%

## CCCCCCCC=CC(=O)N1CCCC1 [SAR-030, N-(Decenoyl)pyrrolidine]
[4]
  Effect on brown garden snails: kill all brown garden snails after they ate
  Consumed amount of corn starch: Less than 5%

## [H]/N=C(/N)N[C@H]1[C@H](O)[C@@H](O)[C@H](O[C@@H]2O[C@@H](C)[C@](O)(C=O)[C@H]2O[C@@H]2O[C@@H](CO)[C@H](O)[C@@H](O)[C@@H]2NC)[C@@H](N/C(N)=N\[H])[C@@H]1O [Streptomycin]
[2]
  CL145A resistant or sensitive to the antibiotic: resistant
[2]; disc 10 μg
  Suppresses growth of CL145A: No

## Gentamicin
[2]
  CL145A resistant or sensitive to the antibiotic: sensitive
[2]; disc 10 μg
  Suppresses growth of CL145A: Yes

## Penicillin
[2]
  CL145A resistant or sensitive to the antibiotic: resistant
[2]; disc 10 μg
  Suppresses growth of CL145A: No
